Measured values: patent publication EP3771487A1, “METHOD FOR THE SIMULTANEOUS DETERMINATION OF VARIOUS ANALYTES IN AN ENVIRONMENTAL SAMPLE AND / OR AN AGRICULTURAL RAW MATERIAL BASED ON CORE-SHELL MICROPARTICLES” (Bundesrepublik Deutschland, vertreten durch den …, priority 2019, dated 2021)

Assays:
[1] = system: anti-CAF Antikörper (mAb); experiment: SAFIA (indirect competitive particle-based suspension array fluorescence immunoassay), CAF channel; type: binding, Maus; settings: for Molare Kreuzreaktivität CAF (SAFIA): method of Abraham, anti-CAF antibody
Description: (§1) Indirekt kompetitiver partikelbasierter Immunoassay: Alle Immunoassays wurden in schwarzen, nicht-bindenden Mikrotiterplatten mit flachem Boden (Greiner Bio-One) durchgeführt. Zum Verdünnen der Suspension der Mikropartikel (Beads) und der biochemischen Reagenzien wurde TRIS-gepufferte Salzlösung (10 mM Tris (hydroxymethyl)aminomethan, 150mM NaCl, pH = 8,5) verwendet. Zunächst wurden 50 µL der Probe oder des Standards und 50 µl einer Mischung der primären (prim.) Antikörper anti-CAF (272 µg/L), anti-CBZ (350 µg/L), anti-DCF (20 µg/L), anti-OTA (50 ng/L), anti-ZON (250µg/L) und anti-ILA (Verdünnung des (polyklonalen) Antiserums: 1:10.000) während 5 Minuten auf einem Kreisschüttler (Titra-max 101, Heidolph) bei 750 U/min geschüttelt. Zur Kalibrierung wurde eine 8-Punkt Verdünnungsserie eines Mischstandards jedes Analyten umfassend Konzentrationen von 10.000 µg/L bis 1 ng/L verwendet, der durch serielle Verdünnung einer methanolischen Stammlösung von 1 mg/mL jedes einzelnen Analyten mit ultrareinem Wasser hergestellt worden war. Danach wurden 20 µL einer Mischung der fluoreszenzkodierten, Hapten-gekoppelten Mikropartikel (Mikropartikel) zugesetzt und für weitere 5 min geschüttelt. Um ein Messsignal der gebundenen Antikörper zu erhalten, wurden 100 µL Alexa Fluor™488 Ziege anti-mouse (und anti-Kaninchen) IgG(H+L), je 2 µg/mL Antikörper (dye 2 red-kodierte Partikel), oder Alexa Fluor™647 Ziege anti-Maus (und anti-Kaninchen) IgG(H+L), je 2 µg/ml Antikörper (dye 1 green kodierte Partikel) den Kern/Schale-Partikeln zugesetzt und für 15 min inkubiert.
(§2) Abschließend wurden, um den Assay zu stoppen, 100 µL einer 6%-igen Formaldehyd-Lösung (aus 37% HCHO/10-15% MeOH Stammlösung, (w/w)), 2% MeOH und 0.01% SDS in PBS zugesetzt und für mindestens 10 min inkubiert. Die Mischung jedes Kavität wurde in einem BD Accuri C6 oder BD AccuriC6 plus Durchflusszytometer bei einer Flussrate von 66 µL/min während 30 s analysiert, wobei ein Schwellwert von 80.000 a.u. am FSC Detektor und ein Probeninjektionsport (SIP)- Reinigungszyklus zwischen den einzelnen Durchläufen eingeschoben wurde, um ein Verschleppen (Übertrag) zu verhindern. Standards und Proben wurden zufällig über die Mikrotiterplatte verteilt angeordnet, um einen Einfluss von Signaldrift und Randeffekte möglichst auszuschließen. Zum Testen der Bindungs-Selektivität wurde jeder Antikörper separat mit jedem haptenmodifizierten (d.h. Haptengekoppeltem) Set der verwendeten Kern/Schale-Mikropartikel inkubiert. Die hier als Fixierlösung verwendete Lösung umfasst bevorzugt Formaldehyd im Konzentrationsbereich 1-10 % vol/vol), Methanol (1-10 % vol/vol) und Natriumdodecylsulfat (0,001-10 % m/m). Statt Formaldehyd können auch andere Aldehyde mit quervernetzenden Eigenschaften (z.B. Glyoxal, Glutarladehyd, Malondialdehyd, Dipalaldehyd) eingesetzt werden. Statt Natriumdodecylsulfat können andere Detergenzien (z.B. Tween20, TitronX, Genapol, CTAB) verwendet werden.
(§3) Datenbehandlung: Alle zytometrischen Daten wurden zunächst nach Streuwerten gegated (FSC/SSC (gate "size": vgl. Fig. 2E) um Partikelaggregate von der Berechnung auszuschließen. Danach wurden vier Gates am FSC/FL-4 (dye 2 red kodierte Partikel, Fig. 2F) oder FSC/FL-1 (dye 1 green kodierte Partikel) verwendet, um die Partikel zu dekodieren und die Analyt-bezogene mittlere Fuoreszenzintensität zu berechnen (vgl. Fig. 2G). Mittelwerte und Standardabweichungen von Wiederholungsmessungen wurden gegen die Konzentration der entsprechenden Analyte auf einer logarithmischen Skale abgetragen. Die von Rodbard eingeführte (Rodbard, D. Biometrics 1975, 31, 599-600) Vier-Parameter-Eichkurve wurde nach der Methode der kleinsten Fehlerquadrate mittels Origin® ver. 9 Grafik-Software gefittet. Ausreißer wurden mittels Grubbs Test bei einem SignifikanzNiveau α = 0,05 identifiziert und eliminiert. Welch's t-Test wurde mit einem Signifikanzniveau von α = 0,05 unter Zuhilfenahme von Origin® 9 verwendet. […]

anti-CBZ mAb [2] = experiment: SAFIA (indirect competitive particle-based suspension array fluorescence immunoassay), CBZ channel; type: binding, Maus; settings: for Molare Kreuzreaktivität CBZ (SAFIA): method of Abraham, anti-CBZ antibody
Description: as §1, §2, §3

anti-DCF mAb [3] = settings: anti-DCF antibody; cited from earlier work
anti-DCF mAb [4] = experiment: SAFIA (indirect competitive particle-based suspension array fluorescence immunoassay), DCF channel; type: binding, Maus; settings: for Molare Kreuzreaktivität DCF (SAFIA): method of Abraham, anti-DCF antibody
Description: as §1, §2, §3

anti-ILA Antiserum [5] = experiment: SAFIA (indirect competitive particle-based suspension array fluorescence immunoassay), ILA channel; type: binding, Kaninchen; settings: for Molare Kreuzreaktivität ILA (SAFIA): method of Abraham, anti-ILA antiserum
Description: as §1, §2, §3

anti-CBZ mAb [6] = settings: anti-CBZ antibody; cited from earlier work
[7] = system: anti-CAF Antikörper (mAb); settings: anti-CAF antibody; cited from earlier work
anti-ILA Antiserum [8] = settings: cited from earlier work
[9] = calibration curve, dye 2 red coded particles, Alexa Fluor™488 secondary antibody

SMILES | Molare Kreuzreaktivität CAF (SAFIA) [1] | Molare Kreuzreaktivität CBZ (SAFIA) (anti-CBZ mAb [2]) | Molare Kreuzreaktivität DCF (ELISA) (anti-DCF mAb [3]) [%] | Molare Kreuzreaktivität DCF (SAFIA) (anti-DCF mAb [4]) | Molare Kreuzreaktivität ILA (SAFIA) (anti-ILA Antiserum [5]) | IC50 "Dye 2 Red" (anti-CBZ mAb [2]; [9]) | Molare Kreuzreaktivität CBZ (ELISA) (anti-CBZ mAb [6]) | Molare Kreuzreaktivität CAF (ELISA) [7] | IC50 "Dye 2 Red" [1, 9] | Molare Kreuzreaktivität ILA (ELISA) (anti-ILA Antiserum [8]) | IC50 "Dye 2 Red" (anti-ILA Antiserum [5]; [9]) | Molare Kreuzreaktivität CBZ (SAFIA) (anti-CBZ mAb [2]; listed as Carbamazepin-10,1-L-epoxid) [%] | IC50 "Dye 2 Red" (anti-DCF mAb [4]; [9])
O=C(O)Cc1cc(O)ccc1Nc1c(Cl)cccc1Cl [5'-Hydroxydiclofenac] | <0,1% | <0,1% | 13 | 9,8% | <0,1% | – | – | – | – | – | – | – | –
NC(=O)N1c2ccccc2C=Cc2ccccc21 [CBZ, Carbamazepin] | <0,1% | 100% | – | <0,1% | < 0,1% | 1,13 ± 0,07 µg/L | 100% | – | – | – | – | – | –
Cn1c(=O)[nH]c2ncn(C)c2c1=O [Paraxanthin] | <0,1% | <0,1% | – | <0,1% | <0,1% | – | – | <0,1% | – | – | – | – | –
Cn1c(=O)c2c(ncn2C)n(C)c1=O [CAF, Coffein] | 100% | <0,1% | – | <0,1% | < 0,1% | – | – | 100% | 1,72 ± 0,16 µg/L | – | – | – | –
C[C@H](CCC(=O)O)[C@H]1CC[C@H]2[C@@H]3[C@H](O)C[C@@H]4C[C@H](O)CC[C@]4(C)[C@H]3C[C@H](O)[C@]12C [Cholsäure] | <0,1% | <0,1% | – | <0,1% | <0,1% | – | – | – | – | <0,1% | – | – | –
C[C@H](CCC(=O)O)[C@H]1CC[C@H]2[C@@H]3CC[C@@H]4C[C@H](O)CC[C@]4(C)[C@H]3CC[C@]12C [Lithocholsäure] | <0,1% | <0,1% | – | <0,1% | 1,9% | – | – | – | – | 0,3% | – | – | –
C[C@H](CCC(=O)O)[C@H]1CC[C@H]2[C@@H]3CC[C@@H]4C[C@@H](O)CC[C@]4(C)[C@H]3CC[C@]12C [ILA, Isolithocholsäure] | <0,1% | <0,1% | – | <0,1% | 100% | – | – | – | – | 100% | 1,39 ± 0,72 µg/L | – | –
NC(=O)N1c2ccccc2C2OC2c2ccccc21 (centres unmarked) [10,11-Epoxycarbamazepin] | <0,1% | 117% | – | <0,1% | < 0,1% | – | 140% | – | – | – | – | 118 | –
O=C(O)Cc1ccccc1Nc1c(Cl)cccc1Cl [DCF, Diclofenac] | <0,1% | <0,1% | 100 | 100% | < 0,1% | – | – | – | – | – | – | – | 0,05 ± 0,02 µg/L
O=C(O)Cc1ccccc1Nc1c(Cl)cc(O)cc1Cl [4'-Hydroxydiclofenac] | <0,1% | <0,1% | 11 | <0,1% | <0,1% | – | – | – | – | – | – | – | –
Cn1c(=O)c2[nH]cnc2n(C)c1=O [Theophyllin] | 5,8% | <0,1% | – | <0,1% | <0,1% | – | – | 12,0% | – | – | – | – | –
NC(=O)N1c2ccccc2C(O)C(O)c2ccccc21 (centres unmarked) [10,11-Dihydroxy-carbamazepin] | <0,1% | 0,3% | – | < 0,1% | – | – | 0,1% | – | – | – | – | – | –
Cn1cnc2c1c(=O)[nH]c(=O)n2C [Theobromin] | 2,0% | <0,1% | – | <0,1% | <0,1% | – | – | 0,13% | – | – | – | – | –
NC(=O)N1c2ccccc2C=Cc2ccc(O)cc21 [3-Hydroxycarbamazepin] | <0,1% | 20,2% | – | <0,1% | < 0,1% | – | 5,1% | – | – | – | – | – | –
C[C@H](CCC(=O)NCCS(=O)(=O)O)[C@H]1CC[C@H]2[C@@H]3CC[C@@H]4C[C@H](O)CC[C@]4(C)[C@H]3CC[C@]12C [Taurolithocholsäure] | <0,1% | <0,1% | – | <0,1% | <0,1% | – | – | – | – | 1,2% | – | – | –
O=C(O)COC(=O)Cc1ccccc1Nc1c(Cl)cccc1Cl [Aceclofenac] | <0,1% | <0,1% | – | 16,6% | <0,1% | – | – | – | – | – | – | – | –
